Calls of active or inactive are those of the source.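 Rule for the calls: active = compounds giving half or more protection of infected cells from virus-caused growth loss, again on retest; inactive = the rest.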
Tested on: CEM cells HIV-1 protection, formazan growth assay
Experiment: NCI AIDS Antiviral Assay
Settings: for IC50: measured here: growth of uninfected CEM cells
Procedure, shortened: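 Human CEM cells, uninfected and HIV-1-infected, received five drug concentrations, and growth was read by soluble formazan assay. Compounds giving at least 50% protection were retested; reproducible 100% protection defined confirmed active.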

Row | SMILES | EC50 [µM] | IC50 [µM] | outcome
1 | C[C@@]12C[C@@H](OC(=O)[C@]1(C)O)[C@@H]([C@]1(O)CC[C@H]3[C@@H]4C[C@H]5O[C@]56CC=CC(=O)[C@]6(C)[C@H]4CC[C@@]31C)C2 | 0.02 | 0.324 | 
2 | Nc1nc2ccc(CO)nc2c(=O)[nH]1 | > 200 | > 200 | 
3 | O=C(N=C1[Se]C(=Nc2ccccc2)C(=Nc2ccccc2)N1c1ccc(Cl)cc1)c1ccccc1 | > 100 | 89.1 | 
4 | CN[C@@H](C)[C@@H](NC)c1ccccc1 |  |  | inactive
5 | O=C(O)CNS(=O)(=O)c1ccc(NC(=O)c2cccc([N+](=O)[O-])c2)cc1 |  |  | inactive
6 | Cc1cn(C2CCN(CC3COC(C)(C)O3)O2)c(=O)[nH]c1=O (stereo unspecified) | > 200 | > 200 | 
7 | O=C(O)[C@@H](NS(=O)(=O)c1ccc2ccccc2c1)c1ccccc1 |  |  | inactive
8 | CC1(C)C(=O)C(C)(C)C1=S | > 219 | > 219 | 
9 | COc1ccc(N2C(=O)c3c4c(c5c([nH]c6ncccc65)c3C2=O)CCC(C(C)(C)C)C4)cc1 (stereo unspecified) | 191 | > 200 | 
10 | Nc1nc2c(ncn2CC2CCOC2=O)c(=O)[nH]1 (stereo unspecified) |  |  | inactive
11 | CCN(C(=S)N[C@H](C(=O)N[C@@H](C)C(=O)OC)C(C)C)c1ccccc1 | 0.575 | 29.5 | 
12 | COC1=C(C(=O)OC(C)(C)C)C23CCCCC2(C(C(=O)OC(C)(C)C)=C(OC)C3C(=O)OC(C)(C)C)C1C(=O)OC(C)(C)C (stereo unspecified) |  |  | inactive
13 | Cn1c[n+](C2OC(CO)C(O)C2O)c2nc([O-])[nH]c(=O)c21 (stereo unspecified) | > 17.4 | 9.77 | 
14 | CCN(CC)CCN(CC)CC(=O)Nc1ccccc1Cl | > 200 | > 200 | 
15 | Cn1nnnc1SCC1=C(C(=O)O)N2C(=O)C(NC(=O)C(OC=O)c3ccccc3)C2SC1 (stereo unspecified) | > 200 | > 200 | 
16 | COc1ccc(/C=C/CO)cc1OC |  |  | inactive
17 | CC(=O)c1ccc(N=NN2CCCC2)cc1 | > 200 | 89.1 | 
18 | COc1ccc(/C=C/COC(C)=O)cc1OC |  |  | inactive
19 | O=S(=O)([O-])C(F)(F)F.[Ru+2].[Ru+2].c1ccc2c(c1)Cc1ccccc1-2 | > 100 | > 100 | 
20 | CC(C)CC(=O)NC(Nc1ccc(S(=O)(=O)Nc2ncccn2)cc1)(C(F)(F)F)C(F)(F)F | > 200 | > 200 | 
21 | COc1ccc(N=Cc2c(O)ccc3c2oc2cc(Cl)c(O)c(Cl)c23)cc1 | > 200 | 2.95 | 

Row | SMILES | EC50 [µM] | IC50 [µM] | outcome
22 | O=c1[nH]c2ccccc2c(O)c1CCCC1CCCCC1 | > 200 | 132 | 
23 | COc1ccccc1N=Nc1c(-c2ccccc2)nn(C(=O)CC(=O)Nc2ccccc2Cl)c1-c1ccccc1 | > 13.2 | > 13.2 | 
24 | C(=C/c1nnnn1-c1ccccc1)/Nc1ccccc1 | > 200 | 26.3 | 
25 | CN(C)C(=S)/N=c1\ssc(=Nc2ccccc2)n1C |  |  | inactive
26 | CN(C)CCSc1nccc(-c2cc3ccccc3s2)n1 | > 417 | 11.5 | 
27 | NC(C(=O)O)/C1=C/CCCCCC1 (stereo unspecified) | > 200 | > 200 | 
28 | c1ccc(OCc2nnc(CCCCCCCCc3nnc(COc4ccccc4)o3)o2)cc1 | > 200 | > 200 | 
29 | O=C1/C(=C/c2cccc([N+](=O)[O-])c2)COc2ccccc21 | > 12.9 | 1.51 | 
30 | COc1ccc(-c2nnc(CCCCCCCCc3nnc(-c4ccc(OC)cc4)o3)o2)cc1 | > 200 | > 200 | 
31 | O=c1ccc2ccccc2n1Cc1ccc2ccccc2n1 | > 200 | 148 | 
32 | C=C(Nc1ccc([N+](=O)[O-])cc1[N+](=O)[O-])c1c/c(=N\NC(N)=S)c2ccccc2o1 | > 117 | > 117 | 
33 | Cc1cc(N(CCC#N)CCC#N)ccc1/C(N=Nc1ccc(C(=O)O)cc1)=N\NC(=O)c1cc(Cl)ccc1O | > 200 | 112 | 
34 | C/C=C(\C)C(=O)c1c(O)cc(O)c2ccc(=O)oc12 | > 200 | 112 | 
35 | O=S(=O)(O)c1cc(O)c2c(N=Nc3ccc(Nc4ccccc4)c4c(S(=O)(=O)O)cccc34)cc(S(=O)(=O)O)cc2c1 | 112 | > 200 | 
36 | CC1(C)OCC(C2OC(OC(=O)c3ccc([N+](=O)[O-])cc3)C3OC(C)(C)OC23)O1 (stereo unspecified) |  |  | inactive
37 | S=C1NC2=C(COC/C2=C\c2ccccc2Cl)C(c2ccccc2Cl)N1 (stereo unspecified) |  |  | inactive
38 | CC(=O)c1sc2c(c1OC(=O)c1ccc(Cl)cc1Cl)c(=O)n(-c1ccccc1)c(=S)n2-c1ccccc1 | > 200 | 0.0631 | 
39 | O=C(O)C1C=CC(c2ccc(Cl)cc2)=N1 (stereo unspecified) | > 200 | > 200 | 
40 | NC1c2ccccc2Nc2ccccc21 | > 182 | 1.29 | 
41 | COc1ccc(CNc2nc3ccccc3nc2-c2cccs2)cc1OC | > 19.1 | 17 | 
42 | COC(=O)[C@@H](N1C(=O)c2ccccc2C1=O)C1(C)CC(Cl)=NO1 (stereo partly specified) | > 200 | > 200 | 

Row | SMILES | EC50 [µM] | IC50 [µM] | outcome
43 | CCCCC(Sc1cc(Cl)c(C)cc1S(=O)(=O)Nc1n[nH]c(N)n1)C(=O)OC (stereo unspecified) | > 200 | > 100 | 
44 | O=[N+]([O-])C1C=Nc2ccccc2N=C1 | > 200 | > 200 | 
45 | Cc1ccccc1NC(=O)c1[nH]c(=S)nc(N)c1-c1ccccc1C | > 97.7 | > 97.7 | 
46 | CNc1ncnc2nc(OC)[nH]c12 | > 105 | > 105 | 
47 | Cn1c(=O)c2c(nc(NCCCCl)n2CC(=O)O)n(C)c1=O | > 200 | > 200 | 
48 | CCOC(=O)/C(=C/c1ccc(C(F)(F)F)cc1)N(CC)CC | > 158 | 64.6 | 
49 | COC(=O)N/N=C(/Cc1occc(=O)c1O)C(=O)Nc1ccc([N+](=O)[O-])cc1[N+](=O)[O-] | > 575 | > 575 | 
50 | Nc1c(Br)cc(/C=C2\C=Cc3ccccc32)cc1Br | > 10 | > 10 | 
51 | CC1(C)CC[P+](CC[P+]2(c3ccccc3)CCC(C)(C)c3ccccc32)(c2ccccc2)c2ccccc21 (stereo unspecified) | > 407 | 64.6 | 
52 | c1nc(SSc2ncnc3nc[nH]c23)c2[nH]cnc2n1 | > 20 | 0.457 | 
53 | CCn1ccnc1.CCn1ccnc1.O=C([O-])CC(O)C(=O)[O-].[Pt+2] (stereo unspecified) | > 200 | > 200 | 
54 | Cc1ccc(-c2c3nc(c(-c4ccc(C)cc4)c4ccc([nH]4)c(-c4ccc(C)cc4)c4nc(c(-c5ccncc5)c5ccc2[nH]5)C=C4)C=C3)cc1.Cc1ccc(-c2c3nc(c(-c4ccc(C)cc4)c4ccc([nH]4)c(-c4ccc(C)cc4)c4nc(c(-c5ccncc5)c5ccc2[nH]5)C=C4)C=C3)cc1.Cc1ccc(-c2c3nc(c(-c4ccc(C)cc4)c4ccc([nH]4)c(-c4ccc(C)cc4)c4nc(c(-c5ccncc5)c5ccc2[nH]5)C=C4)C=C3)cc1.Cc1ccc(-c2c3nc(c(-c4ccc(C)cc4)c4ccc([nH]4)c(-c4ccc(C)cc4)c4nc(c(-c5ccncc5)c5ccc2[nH]5)C=C4)C=C3)cc1.O=S(=O)([O-])C(F)(F)F.[Pt] | > 25.1 | 14.1 | 
55 | COc1cc(NS(=O)(=O)c2ccc(C)cc2)c2nccnc2c1 | > 204 | 77.6 | 
56 | COC(=O)c1cccc(COC(=O)c2cc(C(=CCC[C@H]3CC[C@@]4(C)[C@@H](CC[C@@H]5[C@@H]4CC[C@]4(C)[C@@H]([C@H](C)CCCC(C)C)CC[C@@H]54)C3)c3cc(Cl)c(OCc4cccc(C(=O)OC)c4)c(C(=O)OCc4cccc(C(=O)OC)c4)c3)cc(Cl)c2OCc2cccc(C(=O)OC)c2)c1 | > 200 | > 200 | 
57 | COC(=O)c1ccc(/C=C/C2=CC(=O)C=CC2=O)cc1 | > 200 | 2.09 | 
58 | CC(C)(C)/C(O)=C\c1nc2ccc(C(F)(F)F)cc2[nH]c1=O | > 200 | > 200 | 
59 | COC(=O)NC1=Nc2ccccc2C(=O)NN1 | > 200 | > 200 | 
60 | NC(N)=N/N=C/c1c(-c2ccc(Cl)cc2)nc2n1CCS2 | > 200 | 11.2 | 
61 | CC(=O)OC1CSS(=O)CC1OC(C)=O (stereo unspecified) | > 513 | 22.9 | 
62 | CC12OC(=O)[C@@]3(O)CCC4C(C[C@H]5O[C@]56CC=CC(=O)[C@]46C)C45OC[C@H]6C(=O)O[C@@H]1C[C@@]6(C)[C@H](C4=O)C23O5 (stereo partly specified) | > 200 | 0.398 | 
63 | C[N+](C)(Cc1ccc(NC(=O)CCCC(=O)ON2C(=O)CCC2=O)cc1)c1ccccc1 | > 200 | 135 | 

Row | SMILES | EC50 [µM] | IC50 [µM] | outcome
64 | S=C(SSC(=S)N(Cc1ccccc1)Cc1ccccc1)N(Cc1ccccc1)Cc1ccccc1 | > 200 | 15.1 | 
65 | CN(C(=O)C12C3C4C1C1C4(C(=O)C45C6C7C4C4C5C6C74C)C3C12C)C(C)(C)C (stereo unspecified) |  |  | inactive
66 | CC(CC[C@@H](C)C1CCC2[C@@H]3CC(O)C4CC(O)[C@@H](O)C[C@]4(C)C3CC[C@@]21C)C(C)(C)C (stereo partly specified) |  |  | inactive
67 | Cc1ccc2nc(-c3ccccc3Cl)[nH]c2c1 | 14.8 | 29.5 | 
68 | COC(=O)C(N=O)C(=O)OC |  |  | inactive
69 | COC1(OC)N=C(N)C2(C#N)C(C)=C3NCN(C)N=C3C12C#N (stereo unspecified) | > 200 | > 200 | 
70 | Clc1ccc(NC2=NCCCS2)c2ccccc12 | > 200 | 42.7 | 
71 | Nc1ncnc2c1Sc1nc(Cl)ccc1N2 | > 14.8 | > 14.8 | 
72 | Nc1ncc(Cl)c(NCC2(CO)CC(CCc3ccccc3)C2)n1 (stereo unspecified) | > 200 | 3.24 | 
73 | Cn1c(O)c(C=Nc2ccccc2Cl)c(=O)n(C)c1=O |  |  | inactive
74 | O=C(O)c1ccc(Nc2nc3nn(Cc4ccccc4)cc3c(=O)s2)cc1 | > 195 | > 195 | 
75 | C[N+](C)([O-])CCNc1c2ccccc2nc2cccc([N+](=O)[O-])c12 | > 20 | 0.355 | 
76 | Cc1ccc(Nc2nc(N)nc(N)c2N=O)cc1C | > 200 | > 200 | 
77 | Cc1ccc([N+](=O)[O-])cc1NC(=O)/C(CC(=O)c1sc(C(N)=S)nc1C)=N\N |  |  | inactive
78 | CCCCCCCCCCCCCCCCCCNC(=O)OCC(CNS(=O)(=O)CCC[n+]1cccc2ccccc21)COC (stereo unspecified) | > 200 | 0.676 | 
79 | O=C1SC(=NC2CCCCC2)N(C2CCCCC2)/C1=C1\C(=O)SC(=NC2CCCCC2)N1C1CCCCC1 | > 26.9 | > 26.9 | 
80 | COc1ccc(C[C@@H]2Cc3cc(OC)c(OC)cc3CN2C)cc1 | > 692 | 45.7 | 
81 | C=C([C@@]1(O)C[C@H]2[C@H](CCC2(OC)OC)[C@@H]2c3ccccc3O[C@@H]21)[Si](C)(C)C |  |  | inactive
